Like-named read-outs stand apart in the source and are kept apart here.
Columns and labels:
[1] = Rat tissue distribution 15 min after intravenous bolus; assay type: in vivo; settings: rats; for Kp at 15 min: Sprague-Dawley, rat, brain
Description: (§1) Figure 3 Pharmacokinetic analysis and tissue distribution of PCiv. (A) Pharmacokinetic analysis of blood PCiv levels at each indicated time point following intravenous or oral administration of PCiv (10 mg/kg) determined by ultra-performance liquid chromatography (n = 4 rats for oral and 5 rats for intravenous administration). (B) Quantification of PCiv levels in each indicated tissue (ng/g tissue weight) determined by ultra-performance liquid chromatography (n = 3 rats, tissues collected 15 min after intravenous PCiv administration (10 mg/kg). PCiv was dissolved in a vehicle (DMSO:PEG400:saline ratio of 5:70:25) for solubilization. The quantified data are expressed as means ± standard deviations.
In vivo rat pharmacokinetic studies were performed for intravenous and oral administration of PCiv as previously reported. Sprague-Dawley rats (8 weeks old, 260–280 g) were purchased from Orient Bio Inc. (Seongnam, Korea). Rats were maintained with free access to food and water under a 12:12 h light/dark cycle for 1 week. For pharmacokinetic studies, under anesthetic conditions (20 mg/kg tiletamine/zolazepam [Zoletil; Vibrac Laboratories, Carros, France] administered intramuscularly), the femoral vein and artery were surgically cannulated using polyethylene tubing (PE50; Clay Adams, Parsippany, NJ, USA) in fasted rats. Then, PCiv was administered intravenously and orally at a dose of 10 mg/kg (n = 4–5). The drug was dissolved in a vehicle (DMSO:PEG400:saline at a ratio of 5:70:25). Blood samples (approximately 100 μL) were collected at predetermined time points (0, 1, 5 (intravenous administration only), 15, 30, 60, 120, 180, 240, 360, and 480 min) after drug administration. […] The PCiv level was determined using a CapcellpakTM C18 5 μm column (250 × 1.5 mm, Shiseido Fine Chemical Co., Tokyo, Japan), as previously described. […] The tissue concentration levels were calculated as the PCiv amount (ng) per gram of organ weight.

recombinant α-synuclein = target: T1, recombinant α-synuclein (Homo sapiens, UniProt P37840); experiment: In vitro recombinant α-synuclein aggregation, Western blot; assay type: biochemical; settings: 100 μM, 37 °C, 3 or 5 days
T1 construct: made in house; host or cells: Escherichia coli BL21
Description: Figure 2 PCiv prevents α-synuclein aggregation in vitro and in cultured neurons with PFF treatment. (A) Representative Western blots showing the degree of recombinant α-synuclein (αSyn) aggregation in a test tube in the presence or absence of PCiv (100 μM) at the indicated incubation duration (phosphate-buffered saline [PBS], 37 °C for 3 or 5 days). Aggregation of α-synuclein was determined using α-synuclein antibody. (B) Quantification of the relative amount of α-synuclein aggregate in high molecular weight sizes in panel A (n = 3 per group). […] (D) Quantification of pS129-αSyn immunofluorescence signal intensities in MAP2-positive cortical neurons in each experimental group (n = 15 cells from three separate experiments). (E) Cell viability assessment in the indicated experimental groups was monitored by CCK-8 assay (n = 3 per group). The data are expressed as means ± SEMs. * p < 0.05, ** p < 0.01, *** p < 0.001, and **** p < 0.0001, ANOVA test followed by Tukey’s post hoc analysis. […]
(A) Representative Western blots showing the degree of recombinant α-synuclein (αSyn) aggregation in a test tube in the presence or absence of t-Khellatone, PCiii, and PCiv (100 μM) at 0 and 5 days of incubation (phosphate-buffered saline [PBS], 37 °C for 5 days). Aggregation of α-synuclein was determined using α- synuclein antibody. […]

[2] = Rat pharmacokinetics after intravenous and oral administration; assay type: in vivo; settings: 10 mg/kg, rats
Description: as §1
In vivo rat pharmacokinetic studies were performed for intravenous and oral administration of PCiv as previously reported. Sprague-Dawley rats (8 weeks old, 260–280 g) were purchased from Orient Bio Inc. (Seongnam, Korea). Rats were maintained with free access to food and water under a 12:12 h light/dark cycle for 1 week. For pharmacokinetic studies, under anesthetic conditions (20 mg/kg tiletamine/zolazepam [Zoletil; Vibrac Laboratories, Carros, France] administered intramuscularly), the femoral vein and artery were surgically cannulated using polyethylene tubing (PE50; Clay Adams, Parsippany, NJ, USA) in fasted rats. Then, PCiv was administered intravenously and orally at a dose of 10 mg/kg (n = 4–5). The drug was dissolved in a vehicle (DMSO:PEG400:saline at a ratio of 5:70:25). Blood samples (approximately 100 μL) were collected at predetermined time points (0, 1, 5 (intravenous administration only), 15, 30, 60, 120, 180, 240, 360, and 480 min) after drug administration. To prevent blood clots and fluid loss, the cannula to the femoral artery was flushed with 20 IU/mL heparinized saline, and the same volume of saline was pushed to the cannula for the femoral vein. The plasma fraction was immediately obtained after centrifugation at 14,000 rpm for 15 min at 4 °C and then stored at −20 °C prior to analysis using the ultra-high-performance liquid chromatography (UHPLC)-diode array detector (DAD) method. Similarly, a tissue distribution study was performed 15 min after the intravenous bolus injection (10 mg/kg), as previously described. Four major tissues, including tissues from the brain, heart, kidneys, and liver, were collected. Based on the wet weights of the tissue samples, a two-fold volume of PBS was added and homogenized. The tissue homogenates were stored at −20 °C before UHPLC-DAD analysis. The UHPLC-DAD system consisted of an Agilent Technologies 1290 Infinity II equipped with a DAD (G7117A), an autosampler (G71678B), a binary pump (G7104A), and a multicolumn thermostat (G7116B). The PCiv level was determined using a CapcellpakTM C18 5 μm column (250 × 1.5 mm, Shiseido Fine Chemical Co., Tokyo, Japan), as previously described. The mobile phase was composed of 0.1% phosphoric acid and acetonitrile and eluted in the gradient mode at a flow rate of 0.2 mL/min. A DAD detector was applied at 321 nm, with an injection volume of 10 μL. The calibration range was 20–10,000 ng/mL with good linearity (R = 0.99783 with 1/× weighting). The tissue concentration levels were calculated as the PCiv amount (ng) per gram of organ weight.

## C/C=C(\C)C(=O)O[C@H]1[C@H](OC(C)=O)c2c(ccc3ccc(=O)oc23)OC1(C)C (relative stereo) [PCiv, trans-4′-acetyl-3′-tigloylkhellactone]
[1]; 15 min after intravenous 10 mg/kg, read-out: brain tissue-to-plasma concentration ratio
  Kp at 15 min: 6.4
[1]; intravenous, 10 mg/kg, read-out: distribution to target organ compared with the plasma concentration
  Kp at 15 min: 6.4
[1]; 15 min after intravenous 10 mg/kg
  tissue-to-plasma concentration ratio, liver and kidneys: low
Recombinant α-synuclein
  aggregation of recombinant α-synuclein into high molecular weight species: robustly blocked
[2]; Sprague-Dawley, rat, plasma, iv, intravenous, read-out: mean half-life
  half-life: 1.43 h
[2]; Sprague-Dawley, rat, plasma, po, oral administration, read-out: half-life
  half-life: ~1.62 h
[2]; Sprague-Dawley, rat, plasma, po, oral, read-out: absolute bioavailability
  bioavailability: 9.96%
[2]; Sprague-Dawley, rat, plasma, intravenous, read-out: mean steady-state volume of distribution
  Vd: 6.62 L/kg
[2]; Sprague-Dawley, rat, plasma, intravenous, read-out: mean systemic total clearance
  clearance: 136 mL/min/kg
[2]; oral
  absolute bioavailability: ~10%
  maximum concentration: low
